The values below come from patent US11046699B2, “Pyrazolo-pyrimidin-amino-cycloalkyl compounds and their therapeutic uses” (RAPT THERAPEUTICS, INC., priority 2018, dated 2021).

This assay deals with GCN2 (Homo sapiens, UniProt Q9P2K8). Briefly: GCN2 enzymatic endpoint assay: phosphorylation of GFP-eIF2α measured by TR-FRET (Lanthascreen). The class given is biochemical. To be noted: tested as described in Example 77; compound and/or hydrochloride, dihydrochloride or trifluoroacetic acid salt; read-out: IC 50 Activity. An outline of the steps: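 Reaction started with 2 μM ATP and 80 nM GFP-labelled eIF2α substrate at room temperature, stopped with EDTA after 90 minutes. Phospho-eIF2α detected by terbium-labelled antibody TR-FRET; activity taken as 520 nm (fluorescein) to 495 nm (terbium) emission ratio.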
GCN2, sequence (Q9P2K8 whole entry): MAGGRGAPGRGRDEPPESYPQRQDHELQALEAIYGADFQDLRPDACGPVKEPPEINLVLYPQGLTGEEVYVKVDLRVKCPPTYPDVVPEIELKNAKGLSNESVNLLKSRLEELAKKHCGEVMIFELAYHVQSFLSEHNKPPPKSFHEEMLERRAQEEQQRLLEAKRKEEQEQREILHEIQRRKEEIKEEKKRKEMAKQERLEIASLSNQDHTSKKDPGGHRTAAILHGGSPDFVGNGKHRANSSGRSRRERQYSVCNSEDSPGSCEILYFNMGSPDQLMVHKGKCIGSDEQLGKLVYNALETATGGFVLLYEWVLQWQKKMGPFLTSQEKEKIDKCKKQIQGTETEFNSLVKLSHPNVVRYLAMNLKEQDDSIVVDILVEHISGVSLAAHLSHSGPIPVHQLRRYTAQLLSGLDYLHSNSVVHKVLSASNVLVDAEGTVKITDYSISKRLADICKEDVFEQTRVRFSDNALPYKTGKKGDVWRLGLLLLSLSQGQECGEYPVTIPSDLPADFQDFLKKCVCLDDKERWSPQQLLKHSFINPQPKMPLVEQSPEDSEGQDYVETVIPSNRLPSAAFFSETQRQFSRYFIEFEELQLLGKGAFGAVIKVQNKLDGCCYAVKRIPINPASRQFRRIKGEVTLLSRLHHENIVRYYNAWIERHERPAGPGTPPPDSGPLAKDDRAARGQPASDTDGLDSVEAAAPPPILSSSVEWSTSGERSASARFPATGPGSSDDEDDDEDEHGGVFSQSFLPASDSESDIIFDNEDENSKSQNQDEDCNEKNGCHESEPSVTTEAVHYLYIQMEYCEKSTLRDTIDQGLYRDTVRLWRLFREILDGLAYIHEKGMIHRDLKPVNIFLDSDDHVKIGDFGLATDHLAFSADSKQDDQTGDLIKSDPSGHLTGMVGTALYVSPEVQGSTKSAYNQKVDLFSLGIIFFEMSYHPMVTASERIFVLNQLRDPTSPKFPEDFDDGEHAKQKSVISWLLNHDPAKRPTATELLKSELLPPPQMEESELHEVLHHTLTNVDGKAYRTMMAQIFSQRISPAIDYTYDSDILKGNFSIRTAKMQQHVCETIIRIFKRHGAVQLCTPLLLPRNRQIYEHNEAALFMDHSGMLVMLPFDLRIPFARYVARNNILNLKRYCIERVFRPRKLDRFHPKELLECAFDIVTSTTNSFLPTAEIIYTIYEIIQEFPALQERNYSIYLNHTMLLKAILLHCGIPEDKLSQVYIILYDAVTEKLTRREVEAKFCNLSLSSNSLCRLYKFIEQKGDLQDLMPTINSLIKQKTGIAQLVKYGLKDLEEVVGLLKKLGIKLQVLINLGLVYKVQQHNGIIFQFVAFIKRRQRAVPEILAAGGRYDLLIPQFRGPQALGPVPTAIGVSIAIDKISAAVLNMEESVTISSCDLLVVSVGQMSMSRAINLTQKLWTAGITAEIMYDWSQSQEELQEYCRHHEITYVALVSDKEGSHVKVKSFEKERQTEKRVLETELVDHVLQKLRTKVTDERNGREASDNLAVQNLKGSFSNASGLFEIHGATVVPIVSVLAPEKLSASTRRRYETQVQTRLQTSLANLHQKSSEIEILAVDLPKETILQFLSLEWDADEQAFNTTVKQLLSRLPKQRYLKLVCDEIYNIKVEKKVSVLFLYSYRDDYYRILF
Background: In TR-FRET formats the signal depends on donor and acceptor labels being close together.

As for `CNC(=O)[C@]1(C)CC[C@@H](Nc2ncc3c(Br)nn(-c4ccc(-c5nnc(C)[nH]5)cc4)c3n2)C1` [(1R,3R)-3-[[3-bromo-1-[4-(5-methyl-4H-1,2,4-triazol-3-yl)phenyl]pyrazolo[3,4-d]pyrimidin-6-yl]amino]-N,1-dimethyl-cyclopentanecarboxamide], the IC50 fell in the range of 25 to 200 nM.
Regarding `CNC(=O)[C@]1(C)CC[C@@H](Nc2ncc3c(Br)nn(-c4ccc(-n5nccc5C)cc4)c3n2)C1` [(1R,3R)-3-[[3-bromo-1-[4-(5-methyl-pyrazol-1-yl)phenyl]pyrazolo[3,4-d]pyrimidin-6-yl]amino]-N,1-dimethyl-cyclopentanecarboxamide], the IC50 fell in the range of 25 to 200 nM.
As for `CNC(=O)[C@]1(C)CC[C@@H](Nc2ncc3c(Br)nn(-c4ccc(-c5nnc(C(C)(C)C)o5)cc4)c3n2)C1` [(1R,3R)-3-[[3-bromo-1-[4-(5-tert-butyl-1,3,4-oxadiazol-2-yl)phenyl]pyrazolo[3,4-d]pyrimidin-6-yl]amino]-N,1-dimethyl-cyclopentane-carboxamide], the IC50 was 25 to 200 nM.
On to `CNC(=O)[C@]1(C)CC[C@@H](Nc2ncc3c(Br)nn(-c4ccc(OCC#N)cc4)c3n2)C1` [(1R,3R)-3-[[3-bromo-1-[4-(cyanomethoxy)phenyl]pyrazolo[3,4-d]pyrimidin-6-yl]amino]-N,1-dimethyl-cyclopentane-carboxamide], for which the IC50 fell in the range of 25 to 200 nM.
For the compound `CNC(=O)[C@]1(C)CC[C@@H](Nc2ncc3c(Br)nn(-c4ccc5c(c4)OCC(=O)N5CC#N)c3n2)C1` [(1R,3R)-3-[[3-bromo-1-[4-(cyanomethyl)-3-oxo-1,4-benzoxazin-7-yl]pyrazolo[3,4-d]pyrimidin-6-yl]amino]-N,1-dimethyl-cyclopentanecarboxamide], the IC50 lay in the range of 25 to 200 nM.
For `CNC(=O)[C@]1(C)CC[C@@H](Nc2ncc3c(Br)nn(-c4ccc(C(=O)c5ccno5)cc4)c3n2)C1` [(1R,3R)-3-[[3-bromo-1-[4-(isoxazole-5-carbonyl)phenyl]pyrazolo[3,4-d]pyrimidin-6-yl]amino]-N,1-dimethyl-cyclopentanecarboxamide], the IC50 was 25 to 200 nM.
In the case of `CNC(=O)[C@]1(C)CC[C@@H](Nc2ncc3c(Br)nn(-c4ccc(-n5nccn5)cc4)c3n2)C1` [(1R,3R)-3-[[3-bromo-1-[4-(triazol-2-yl)phenyl]pyrazolo[3,4-d]pyrimidin-6-yl]amino]-N,1-dimethyl-cyclopentane-carboxamide] it was 25 to 200 nM.
As to `CNC(=O)[C@@H]1CC[C@@H](Nc2ncc3c(Br)nn(-c4ccc(-c5cnn(CCOC)c5)cc4)c3n2)C1` [(1R,3R)-3-[[3-bromo-1-[4-[1-(2-methoxy-ethyl)pyrazol-4-yl]phenyl]pyrazolo[3,4-d]pyrimidin-6-yl]amino]-N-methyl-cyclopentanecarboxamide], the IC50 fell in the range of 25 to 200 nM.
`CNC(=O)[C@]1(C)CC[C@@H](Nc2ncc3c(Br)nn(-c4ccc(-c5nnc(C(C)(C)O)o5)cc4)c3n2)C1` [(1R,3R)-3-[[3-bromo-1-[4-[5-(1-hydroxy-1-methyl-ethyl)-1,3,4-oxadiazol-2-yl]phenyl]pyrazolo[3,4-d]pyrimidin-6-yl]amino]-N,1-dimethyl-cyclopentanecarboxamide]: the IC50 is 25 to 200 nM.
As for `CNC(=O)[C@]1(C)CC[C@@H](Nc2ncc3c(Br)nn(-c4ccc(-c5nnc(C(C)O)o5)cc4)c3n2)C1` (stereo partly drawn) [(1R,3R)-3-[[3-bromo-1-[4-[5-(1-hydroxy-ethyl)-1,3,4-oxadiazol-2-yl]phenyl]pyrazolo [3,4-d]pyrimidin-6-yl]amino]-N,1-dimethyl-cyclopentanecarboxamide], the IC50 fell in the range of 25 to 200 nM.
As for `CNC(=O)[C@]1(C)CC[C@@H](Nc2ncc3c(Br)nn(-c4ccc(-c5nnc(C(C)CC#N)o5)cc4)c3n2)C1` (stereo partly drawn) [(1R,3R)-3-[[3-bromo-1-[4-[5-(2-cyano-1-methyl-ethyl)-1,3,4-oxadiazol-2-yl]phenyl]pyrazolo[3,4-d]pyrimidin-6-yl]amino]-N,1-dimethyl-cyclopentanecarboxamide], the figure is less than 25 nM; as for `CNC(=O)[C@]1(C)CC[C@@H](Nc2ncc3c(Br)nn(-c4ccc(-c5nnc(C(C)CO)o5)cc4)c3n2)C1` (stereo partly drawn) [(1R,3R)-3-[[3-bromo-1-[4-[5-(2-hydroxy-1-methyl-ethyl)-1,3,4-oxadiazol-2-yl]phenyl]pyrazolo[3,4-d]pyrimidin-6-yl]amino]-N,1-dimethyl-cyclopentane-carboxamide], less than 25 nM.
On to `CNC(=O)[C@]1(C)CC[C@@H](Nc2ncc3c(Br)nn(-c4ccc(-c5nnc(CC(C)O)o5)cc4)c3n2)C1` (stereo partly drawn) [(1R,3R)-3-[[3-bromo-1-[4-[5-(2-hydroxy-propyl)-1,3,4-oxadiazol-2-yl]phenyl]pyrazolo [3,4-d]pyrimidin-6-yl]amino]-N,1-dimethyl-cyclopentanecarboxamide], for which the IC50 lay in the range of 25 to 200 nM.
In the case of `CNC(=O)[C@]1(C)CC[C@@H](Nc2ncc3c(Br)nn(-c4ccc(-c5nnc(CCOC)o5)cc4)c3n2)C1` [(1R,3R)-3-[[3-bromo-1-[4-[5-(2-methoxy-ethyl)-1,3,4-oxadiazol-2-yl]phenyl]pyrazolo [3,4-d]pyrimidin-6-yl]amino]-N,1-dimethyl-cyclopentanecarboxamide] it was less than 25 nM; in that of `CNC(=O)[C@]1(C)CC[C@@H](Nc2ncc3c(Br)nn(-c4ccc(-c5nnc(C(F)F)o5)cc4)c3n2)C1` [(1R,3R)-3-[[3-bromo-1-[4-[5-(difluoro-methyl)-1,3,4-oxadiazol-2-yl]phenyl]pyrazolo[3,4-d]pyrimidin-6-yl]amino]-N,1-dimethyl-cyclopentanecarboxamide], 25 to 200 nM; in that of `CNC(=O)[C@]1(C)CC[C@@H](Nc2ncc3c(Br)nn(-c4ccc(-c5nnc(COC)o5)cc4)c3n2)C1` [(1R,3R)-3-[[3-bromo-1-[4-[5-(methoxy-methyl)-1,3,4-oxadiazol-2-yl]phenyl]pyrazolo [3,4-d]pyrimidin-6-yl]amino]-N,1-dimethyl-cyclopentanecarboxamide], 25 to 200 nM.
Take `CNC(=O)[C@]1(C)CC[C@@H](Nc2ncc3c(Br)nn(-c4ccc(-c5nnc(COC)s5)cc4)c3n2)C1` [(1R,3R)-3-[[3-bromo-1-[4-[5-(methoxy-methyl)-1,3,4-thiadiazol-2-yl]phenyl]pyrazolo[3,4-d]pyrimidin-6-yl]amino]-N,1-dimethyl-cyclopentanecarboxamide]: the IC50 was in the range of 25 to 200 nM.
`CNC(=O)[C@]1(C)CC[C@@H](Nc2ncc3c(Br)nn(-c4ccc(-c5nnc(C(=O)N6CCOCC6)s5)cc4)c3n2)C1` [(1R,3R)-3-[[3-bromo-1-[4-[5-(morpholine-4-carbonyl)-1,3,4-thiadiazol-2-yl]phenyl]pyrazolo[3,4-d]pyrimidin-6-yl]amino]-N,1-dimethyl-cyclopentanecarboxamide]: the IC50 lay within 25 to 200 nM.
In the case of `CNC(=O)[C@]1(C)CC[C@@H](Nc2ncc3c(Br)nn(-c4ccc(-c5nnc(C(=O)N6CCNCC6)s5)cc4)c3n2)C1` [(1R,3R)-3-[[3-bromo-1-[4-[5-(piperazine-1-carbonyl)-1,3,4-thiadiazol-2-yl]phenyl]pyrazolo[3,4-d]pyrimidin-6-yl]amino]-N,1-dimethyl-cyclopentanecarboxamide], the IC50 fell in the range of 25 to 200 nM.
Consider `CNC(=O)[C@]1(C)CC[C@@H](Nc2ncc3c(Br)nn(-c4ccc(C#N)c(OCCO)c4)c3n2)C1` [(1R,3R)-3-[[3-bromo-1-[4-cyano-3-(2-hydroxyethoxy)phenyl]pyrazolo[3,4-d]pyrimidin-6-yl]amino]-N,1-dimethyl-cyclopentanecarboxamide], for which the IC50 lay within 25 to 200 nM.
